Some results are limits rather than exact numbers.

25 compounds from US10758534B2 (Vertex Pharmaceuticals Incorporated, priority 2014, dated 2020) can be followed below.

The first test deals with T1, F508del (Homo sapiens, UniProt P13569, DEL508-508).
T1 construct: expressed in transfected cells
T1 sequence (P13569 with tags, fused parts or gaps DEL508-508): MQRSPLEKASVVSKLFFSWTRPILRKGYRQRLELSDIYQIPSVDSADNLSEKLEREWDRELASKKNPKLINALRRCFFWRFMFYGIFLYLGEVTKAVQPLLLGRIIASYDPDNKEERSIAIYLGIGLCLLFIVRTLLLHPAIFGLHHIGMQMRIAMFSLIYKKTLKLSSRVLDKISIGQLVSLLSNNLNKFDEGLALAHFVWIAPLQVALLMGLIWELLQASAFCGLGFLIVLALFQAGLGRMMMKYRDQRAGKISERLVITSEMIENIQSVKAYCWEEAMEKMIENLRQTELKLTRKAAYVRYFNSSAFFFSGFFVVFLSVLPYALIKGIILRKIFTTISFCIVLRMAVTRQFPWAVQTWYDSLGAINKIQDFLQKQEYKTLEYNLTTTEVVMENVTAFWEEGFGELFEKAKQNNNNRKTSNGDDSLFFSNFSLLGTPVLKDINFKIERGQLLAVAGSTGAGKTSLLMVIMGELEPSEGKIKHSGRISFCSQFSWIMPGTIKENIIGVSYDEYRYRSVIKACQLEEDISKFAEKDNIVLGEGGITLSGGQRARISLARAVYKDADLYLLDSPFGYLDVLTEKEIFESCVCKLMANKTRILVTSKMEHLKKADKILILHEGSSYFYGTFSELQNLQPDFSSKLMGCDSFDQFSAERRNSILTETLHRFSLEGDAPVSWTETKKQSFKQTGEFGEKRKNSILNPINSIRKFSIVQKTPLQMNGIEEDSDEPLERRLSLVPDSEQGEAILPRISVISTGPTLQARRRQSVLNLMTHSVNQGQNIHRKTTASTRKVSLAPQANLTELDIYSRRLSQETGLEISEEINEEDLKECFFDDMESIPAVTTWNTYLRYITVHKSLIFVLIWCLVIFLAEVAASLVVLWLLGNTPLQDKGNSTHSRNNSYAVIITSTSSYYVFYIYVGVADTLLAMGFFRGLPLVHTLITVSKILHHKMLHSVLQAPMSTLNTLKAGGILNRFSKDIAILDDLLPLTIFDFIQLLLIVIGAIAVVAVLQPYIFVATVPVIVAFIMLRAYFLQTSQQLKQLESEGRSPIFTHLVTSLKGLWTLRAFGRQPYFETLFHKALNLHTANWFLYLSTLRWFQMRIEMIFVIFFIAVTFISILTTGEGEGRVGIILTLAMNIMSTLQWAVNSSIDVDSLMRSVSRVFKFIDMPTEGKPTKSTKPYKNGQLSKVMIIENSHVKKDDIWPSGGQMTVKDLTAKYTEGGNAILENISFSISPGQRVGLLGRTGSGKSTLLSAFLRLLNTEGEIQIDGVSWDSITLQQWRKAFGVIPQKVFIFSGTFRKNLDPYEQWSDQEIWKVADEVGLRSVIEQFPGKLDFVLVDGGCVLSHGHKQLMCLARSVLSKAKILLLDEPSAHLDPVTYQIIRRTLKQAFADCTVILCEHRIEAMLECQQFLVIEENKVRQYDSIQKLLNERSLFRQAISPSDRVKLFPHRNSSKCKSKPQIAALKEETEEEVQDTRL
Nature of the test: Protocol 2: FRET membrane potential optical assay (VIPR), identification of correction compounds. Type of test: cell-based. As to conditions: F508del CFTR modulator activity; compounds of Table 1; read-out: EC30. An excerpt: Membrane potential optical methods for assaying F508del modulation properties of compounds.
These voltage sensitive assays are based on the change in fluorescence resonant energy transfer (FRET) between the membrane-soluble, voltage-sensitive dye, DiSBAC2(3), and a fluorescent phospholipid, CC2-DMPE, which is attached to the outer leaflet of the plasma membrane and acts as a FRET donor. Changes in membrane potential (Vm) cause the negatively charged DiSBAC2(3) to redistribute across the plasma membrane and the amount of energy transfer from CC2-DMPE changes accordingly. The changes in fluorescence emission were monitored using VIPR™ II, which is an integrated liquid handler and fluorescent detector designed to conduct cell-based screens in 96- or 384-well microtiter plates.
To identify small molecules that correct the trafficking defect associated with F508del; a single-addition HTS assay format was developed. The cells were incubated in serum-free medium for 16 hrs at 37° C. in the presence or absence (negative control) of test compound. As a positive control, cells plated in 384-well plates were incubated for 16 hrs at 27° C. to “temperature-correct” F508del. The cells were subsequently rinsed 3× with Krebs Ringers solution and loaded with the voltage-sensitive dyes. To activate F508del, 10 μM forskolin and the CFTR potentiator, genistein (20 μM), were added along with Cl^−-free medium to each well. The addition of Cl^−-free medium promoted Cl^− efflux in response to F508del activation and the resulting membrane depolarization was optically monitored using the FRET-based voltage-sensor dyes.
• Bath Solution #1: (in mM) NaCl 160, KCl 4.5, CaCl2 2, MgCl2 1, HEPES 10, pH 7.4 with NaOH. • Chloride-free bath solution: Chloride salts in Bath Solution #1 (above) are substituted with gluconate salts. • CC2-DMPE: Prepared as a 10 mM stock solution in DMSO and stored at −20° C. • DiSBAC2(3): Prepared as a 10 mM stock in DMSO and stored at −20° C. Cell Culture
NIH3T3 mouse fibroblasts stably expressing F508del are used for optical measurements of membrane potential. The cells are maintained at 37° C. in 5% CO2 and 90% humidity in Dulbecco's modified Eagle's medium supplemented with 2 mM glutamine, 10% fetal bovine serum, 1×NEAA, β-ME, 1× pen/strep, and 25 mM HEPES in 175 cm^2 culture flasks. For all optical assays, the cells were seeded at 30,000/well in 384-well matrigel-coated plates and cultured for 2 hrs at 37° C. before culturing at 27° C. for 24 hrs for the potentiator assay. For the correction assays, the cells are cultured at 27° C. or 37° C. with and without compounds for 16-24 hours.
A word on the EC30: it is the concentration needed for an effect of 30%. On to `CC1CN(c2ncccc2C(=O)NS(=O)(=O)c2cccc(OCc3ccco3)n2)C(C)(C)C1` (stereo not shown) [Compound 2308, N—[[6-(2-furylmethoxy)-2-pyridyl]sulfonyl]-2-(2,2,4-trimethylpyrrolidin-1-yl)pyridine-3-carboxamide], for which the EC30 is under 3000 nM.
Regarding `CC(C)COc1ccc(-c2ccc(C(=O)NS(=O)(=O)c3ccc[nH]c3=O)c(N3C[C@@H](C)CC3(C)C)n2)cc1` [Compound 2153, 6-(4-isobutoxyphenyl)-N-[(2-oxo-1H-pyridin-3-yl)sulfonyl]-2-[(4S)-2,2,4-trimethylpyrrolidin-1-yl]pyridine-3-carboxamide], the EC30 is under 3000 nM.
The same measure, in the same setting: to `CC(C)(C)c1ccc(C(=O)NS(=O)(=O)c2cccc(N)n2)c(N2CCC(C3CCOCC3)C2(C)C)n1` (single isomer, unassigned) [Compound 2266, N-[(6-amino-2-pyridyl)sulfonyl]-6-tert-butyl-2-(2,2-dimethyl-3-tetrahydropyran-4-yl-pyrrolidin-1-yl)pyridine-3-carboxamide] belongs under 3000 nM; to `C[C@@H]1CN(c2nc(-c3cc(O)cc(F)c3)ccc2C(=O)NS(=O)(=O)c2cccnc2N)C(C)(C)C1` [Compound 2349, N-[(2-amino-3-pyridyl)sulfonyl]-6-(3-fluoro-5-hydroxy-phenyl)-2-[(4S)-2,2,4-trimethylpyrrolidin-1-yl]pyridine-3-carboxamide], 3000 to 10000 nM.
Regarding `C[C@@H]1CN(c2nc(-c3ccccc3OC(F)(F)F)ccc2C(=O)NS(=O)(=O)c2cccnc2N)C(C)(C)C1` [Compound 2539, N-[(2-amino-3-pyridyl)sulfonyl]-6-[12-(trifluoromethoxy)phenyl]-2-[(4S)-2,2,4-trimethylpyrrolidin-1-yl]pyridine-3-carboxamide], the EC30 is under 3000 nM.
As to `CC1CN(c2ncccc2C(=O)NS(=O)(=O)c2cccc(N3CCC4CCCCC4C3)n2)C(C)(C)C1` (stereo not shown) [Compound 2011, N—[[6-(3,4,4a,5,6,7,8,8a-octahydro-1H-isoquinolin-2-yl)-2-pyridyl]sulfonyl]-2-(2,2,4-trimethylpyrrolidin-1-yl)pyridine-3-carboxamide], the EC30 was under 3000 nM.
Still for that read-out and setting: to `Cc1cc(I)cc(C)c1Oc1nc(-c2cc(F)cc(OCC(C)C)c2)ccc1C(=O)NS(=O)(=O)c1cccc(N)n1` [Compound 2671, N-[(6-amino-2-pyridyl)sulfonyl]-6-(3-fluoro-5-isobutoxy-phenyl)-2-(4-iodo-2,6-dimethyl-phenoxy)pyridine-3-carboxamide] belongs under 3000 nM.
Still for that read-out and setting: the figure for `CC1CN(c2ncccc2C(=O)NS(=O)(=O)c2cccc(Oc3cc(F)ccc3Cl)n2)C(C)(C)C1` (stereo not shown) [Compound 2591, N—[[6-(2-chloro-5-fluoro-phenoxy)-2-pyridyl]sulfonyl]-2-(2,2,4-trimethylpyrrolidin-1-yl)pyridine-3-carboxamide] is under 3000 nM; for `CC1CN(c2ncccc2C(=O)NS(=O)(=O)c2cccc(OCCc3ccccc3)n2)C(C)(C)C1` (stereo not shown) [Compound 2721] it is under 3000 nM; for `C[C@@H]1CN(c2nc(-c3ccc4cc(O)ccc4c3)ccc2C(=O)NS(=O)(=O)c2cccnc2N)C(C)(C)C1` [Compound 2468, N-[(2-amino-3-pyridyl)sulfonyl]-6-(6-hydroxy-2-naphthyl)-2-[(4S)-2,2,4-trimethylpyrrolidin-1-yl]pyridine-3-carboxamide] it is under 3000 nM.
The same measure, in the same setting: to `CC1CN(c2ncccc2C(=O)NS(=O)(=O)c2cccc(N3CCC(CCN(C)C)CC3)n2)C(C)(C)C1` (stereo not shown) [Compound 2383, N—[[6-[4-(2-dimethylaminoethyl)-1-piperidyl]-2-pyridyl]sulfonyl]-2-(2,2,4-trimethylpyrrolidin-1-yl)pyridine-3-carboxamide] belongs 3000 to 10000 nM; to `CCCN(CCOC)c1cccc(S(=O)(=O)NC(=O)c2cccnc2N2CC(C)CC2(C)C)n1` (stereo not shown) [Compound 2343, N—[[6-[2-methoxyethyl(propyl)amino]-2-pyridyl]sulfonyl]-2-(2,2,4-trimethylpyrrolidin-1-yl)pyridine-3-carboxamide], under 3000 nM.
Take `C[C@@H]1CN(c2nc(C3CCC(C(F)(F)F)CC3)ccc2C(=O)NS(=O)(=O)c2cccnc2N)C(C)(C)C1` (single isomer, unassigned) [Compound 2077]: the EC30 was under 3000 nM.

The test is the same for the next values; noted with them: Table 3; compounds of Table 1 as modulators of CFTR activity; protocol not stated.
With `Cc1cc(C)cc(-c2nc(C(C)(C)C)ccc2C(=O)NS(=O)(=O)c2cccc(N)c2)c1` [Compound 52, N-(3-aminophenyl)sulfonyl-6-tert-butyl-2-(3,5-dimethylphenyl)pyridine-3-carboxamide], the concentration for an effect of 30% (EC30) result is on record as “+++ (“+++” means <3 uM)”.
Regarding `Cc1cc(C)c(Cn2c(C(=O)NS(=O)(=O)c3ccncc3)cc3cc(C)ccc32)c(C)c1` [Compound 25, 5-methyl-N-(4-pyridylsulfonyl)-1-[(2,4,6-trimethylphenyl)methyl]indole-2-carboxamide], the EC30 entry was “++ (“++” means between 3 uM and 10 uM)”.
On to `CC(C)COc1cc(F)cc(-c2ccc(C(=O)NS(=O)(=O)c3ccn[nH]3)c(N3C[C@H](C)C[C@H](C)C3)n2)c1` [Compound 642, 2-[(3R,5S)-3,5-dimethyl-1-piperidyl]-6-(3-fluoro-5-isobutoxy-phenyl)-N-(1H-pyrazol-5-ylsulfonyl)pyridine-3-carboxamide], for which the EC30 entry was “+++ (“+++” means <3 uM)”.
Same read-out and setting: to `Cc1cc(C)c(Oc2nc3ccccc3cc2C(=O)NS(=O)(=O)c2cccc(N)n2)c(C)c1` [Compound 91, N-[(6-amino-2-pyridyl)sulfonyl]-2-(2,4,6-trimethylphenoxy)quinoline-3-carboxamide] belongs “++ (“++” means between 3 uM and 10 uM)”; to `Cc1c(Cn2nc(C(C)(C)C)cc2C(=O)NS(=O)(=O)c2cccc3ccn(C)c23)cccc1C(F)(F)F` [Compound 276, 5-tert-butyl-N-(1-methylindol-7-yl)sulfonyl-2-[[2-methyl-3-(trifluoromethyl)phenyl]methyl]pyrazole-3-carboxamide], “+++ (“+++” means <3 uM)”; to `Cc1ccccc1-c1ccc(C(=O)NS(=O)(=O)c2cccc(N)n2)c(N2CC(C)CC2(C)C)n1` (stereo not shown) [Compound 761, N-[(6-amino-2-pyridyl)sulfonyl]-6-(o-tolyl)-2-(2,2,4-trimethylpyrrolidin-1-yl)pyridine-3-carboxamide], “+++ (“+++” means <3 uM)”.
Take `Cc1cc(C)c(Oc2nc(C)ccc2C(=O)NS(=O)(=O)c2cccc(NCCN)n2)c(C)c1` [Compound 792, N-[[6-(2-aminoethylamino)-2-pyridyl]sulfonyl]-6-methyl-2-(2,4,6-trimethylphenoxy)pyridine-3-carboxamide]: the 30% effect concentration (EC30) entry is “++ (“++” means between 3 uM and 10 uM)”.
`Cc1ccc(Oc2nc(C(C)(C)C)ccc2C(=O)NS(=O)(=O)c2cccc(N)n2)c(C)c1` [Compound 204, N-[(6-amino-2-pyridyl)sulfonyl]-6-tert-butyl-2-(2,4-dimethylphenoxy)pyridine-3-carboxamide]: the EC30 result was “+++ (“+++” means <3 uM)”.
On to `CC(C)COc1cc(F)cc(-c2ccc(C(=O)NS(=O)(=O)c3cccc(N)n3)c(N3CCCC3c3ccccn3)n2)c1` (stereo not shown) [Compound 659, N-[(6-amino-2-pyridyl)sulfonyl]-6-(3-fluoro-5-isobutoxy-phenyl)-2-[2-(2-pyridyl)pyrrolidin-1-yl]pyridine-3-carboxamide], for which the EC30 result is “++ (“++” means between 3 uM and 10 uM)”.
On the same count and under the same terms, the entry for `CC(C)COc1cc(F)cc(-c2ccc(C(=O)NS(=O)(=O)c3cccc(N)n3)c(N3CCC(C)C3C)n2)c1` (stereo not shown) [Compound 720, N-[(6-amino-2-pyridyl)sulfonyl]-2-(2,3-dimethylpyrrolidin-1-yl)-6-(3-fluoro-5-isobutoxy-phenyl)pyridine-3-carboxamide] is “+++ (“+++” means <3 uM)”; for `CC(C)(C)c1cc(C(=O)NS(=O)(=O)c2ccccc2)n(Cc2cccc3ccccc23)n1` [Compound 328, N-(benzenesulfonyl)-5-tert-butyl-2-(1-naphthylmethyl)pyrazole-3-carboxamide] it is “+++ (“+++” means <3 uM)”.
Same read-out and setting: the entry for `COCCCc1ccc(C(=O)NS(=O)(=O)c2cccc(N)n2)c(Oc2c(C)cc(C)cc2C)n1` [Compound 791, N-[(6-amino-2-pyridyl)sulfonyl]-6-(3-methoxypropyl)-2-(2,4,6-trimethylphenoxy)pyridine-3-carboxamide] is “++ (“++” means between 3 uM and 10 uM)”.
